Laboratory results from patent publication US20250339492A1, “METHOD OF TREATING OR PREVENTING AN ADVERSE SECONDARY NEUROLOGICAL OUTCOME FOLLOWING A HAEMORRHAGIC STROKE” (CSL BEHRING AG, priority 2021, published 2025).
“Also recorded” adds a separate entry of the source.

B1: heme:Hx: heme-hemopexin complex (1 mM) injected into striatum (protein, UniProt P02790 24-462, looked up)
Hemopexin: TPLPPTSAHGNVAEGETKPDPDVTERCSDGWSFDATTLDDNGTMLFFKGEFVWKSHKWDRELISERWKNFPSPVDAAFRQGHNSVFLIKGDKVWVYPPEKKEKGYPKLLQDEFPGIPSPLDAAVECHRGECQAEGVLFFQGDREWFWDLATGTMKERSWPAVGNCSSALRWLGRYYCFQGNQFLRFDPVRGEVPPRYPRDVRDYFMPCPGRGHGHRNGTGHGNSTHHGPEYMRCSPHLVLSALTSDNHGATYAFSGTHYWRLDTSRDGWHSWPIAHQWPQGPSAVDAAFSWEEKLYLVQGTQVYVFLTKGGYTLVSGYPKRLEKEVGTPHGIILDSVDAAFICPGSSRLHIMAGRRLWWLDLKSGAQATWTELPWPHEKVDGALCMEKSLGPNSCSANGPGLYLIHGPNLYCYSDVEKLNAAKALPQPQNVTSLLGCTH
modifications: heme complex
notes: heme-hemopexin complex (1 mM) injected into striatum

Assays:
porcine basilar arteries = test: vascular function assay, porcine basilar arteries pre-contracted with PGF2α
Method: The vascular function assay (FIG. 7E) was performed using fresh porcine basilar arteries obtained from a local abattoir (n=12). Vessels were pre stretched to reach 8 the optimal passive pretension as previously published (Hugelshofer et al., 2020). Then, 10 μM prostaglandin F2α (PGF2α; Sigma, Buchs, Switzerland) was used as a pre-contracting agent. In order to determine the maximum possible tension in absence of endogenous NO, L-N5-(1-Iminoethyl) ornithine hydrochloride (L-NIO; Sigma-Aldrich, Saint Louis, US-MO) at a concentration of 10 μM was added at the end of the experiment. The recorded tension was normalized to the individual NO reserve capacity of the respective vessel, i.e. the baseline tension after addition of PGF2α (0%) and the tension after addition of L-NIO at the end of the experiment (100%) (FIG. 7F). Damaged vessels with a continuous loss in tension over the duration of the experiment, resulting in a PGF2α max/L-NIO max ratio below 0.7, were excluded from the analysis (FIG. 7F). A first series of experiments was conducted to evaluate the vasoconstrictive potential of the patient CSF in the high-risk phase for SAH-SBI after aSAH and to assess the specific role of oxyHb in this process. […] In a second series of experiments, the influence of an increasing exposure to Hb on the vascular tension was assessed. […]

C57BL/6J mice [1] = test: striatal injection model, behavioural testing (open field, rotarod, beam walk); type: in vivo; settings: 24 hours after striatal injection of 10 μL, 1 mM; n=6 per group; FIG. 12
Excerpt: (§1) Wild-type male C57BL/6J mice (10-12 weeks) were obtained from Charles River (Sulzfeld, Germany) and maintained at the animal facility of the University of Zurich (LASC) and treated in accordance with the guidelines of the Swiss Federal Veterinary Office.
Mice were anesthetized with isoflurane (4-5% for induction, 1-2% for maintenance; Baxter Healthcare Co. Deerfield, IL, USA) evaporated in 100% oxygen. Throughout the surgical procedure, body temperature was monitored with a rectal probe and maintained constant with the use of an electronic thermostat-controlled warming blanket. Anesthetized mice were placed in a motorized stereotaxic frame (Stoelting, Dublin, Ireland) and a 1 cm long midline skin incision was made. After removal of the soft tissue covering the skull, the frame referenced to bregma and a small burrhole was drilled above the entry point for the target. Then a 33G needle was slowly advanced (0.1 mm/s) into the striatum (bregma coordinates: 2 mm ML, 0.5 mm AP, 3.5 mm DV) followed by injection of 10 μL heme-albumin (1 mM), haptoglobin (5 mM) (protein control group) or heme-hemopexin (1 mM) with an infusion rate of 100 nl/s. […] After the surgical procedure, the animals were placed in a heated wake up box and monitored until they were fully recovered and could be transferred back to their homecage.
The open field exploration tests were conducted in four identical square arenas (40×40×35 cm high) made of opaque acrylic glass, located in a testing room under diffused lighting (approximately 35 Ix as measured in the center of the arenas). […] The total distance moved during 10 minutes (in cm), beginning after a 5 minutes acclimatization phase was measured.
For the rotarod behavioural testing the mice are placed on a rotating cylinder and therefore forced to walk. […] The time until the mice fall off the cylinder is measured.
For discrete neurological deficits, mice were subjected to a beam walk test. […] During the assessment, the motor function was scored by two investigators blinded to treatment.

C57BL/6J mice [2] = test: striatal injection model, MRI (T2, ASL, DWI); type: in vivo; settings: for quantification of edema size and perfusion: 24, 48 and 72 hours after striatal injection, n=4 per group, FIG. 14; for radiological changes (T2, ADC map, ASL): 24 hours after striatal injection, FIG. 13
Excerpt: as §1
Mice were anesthetized with isoflurane (4-5% for induction, 1-2% for maintenance; Baxter Healthcare Co. Deerfield, IL, USA) evaporated in 100% oxygen. Throughout the surgical procedure, body temperature was monitored with a rectal probe and maintained constant with the use of an electronic thermostat-controlled warming blanket. Anesthetized mice were placed in a motorized stereotaxic frame (Stoelting, Dublin, Ireland) and a 1 cm long midline skin incision was made. After removal of the soft tissue covering the skull, the frame referenced to bregma and a small burrhole was drilled above the entry point for the target. Then a 33G needle was slowly advanced (0.1 mm/s) into the striatum (bregma coordinates: 2 mm ML, 0.5 mm AP, 3.5 mm DV) followed by injection of 10 μL heme-albumin (1 mM), haptoglobin (5 mM) (protein control group) or heme-hemopexin (1 mM) with an infusion rate of 100 nl/s. The needle was left in place for 5 minutes, then removed slowly and the skin incision was closed with a suture. After the surgical procedure, the animals were placed in a heated wake up box and monitored until they were fully recovered and could be transferred back to their homecage.
Mice were anesthetized with isoflurane (4-5% for induction, 1-2% for maintenance; Baxter Healthcare Co. Deerfield, IL, USA) evaporated in 100% oxygen. Throughout the imaging procedure, body temperature was monitored with a rectal probe and maintained constant with the use of a warming blanket and respiratory rate was recorded by plethysmography. Mice were placed into a 7 T small animal MRI scanner (Brucker, Germany). T2, ASL and DWI images were recorded according to a standardized protocol.

CSF-Hb = target: T1, CSF-Hb (Homo sapiens, UniProt P68871+P69905); test: oxidative potential of patient CSF after aSAH (TBARS, MDA formation) with addition of Hp or hemopexin; type: biochemical; settings: added at equimolar concentration, patient CSF of high risk phase week 0.5-2, FIG. 5D
T1 construct: from tissue; host or cells: cerebrospinal fluid of patients after aSAH (high-risk phase, week 0.5-2)
T1 sequence (P69905 2-142 limits assumed): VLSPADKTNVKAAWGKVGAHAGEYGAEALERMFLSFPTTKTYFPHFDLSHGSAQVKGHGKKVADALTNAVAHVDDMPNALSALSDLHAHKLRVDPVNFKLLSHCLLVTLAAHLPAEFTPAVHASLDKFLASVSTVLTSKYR
T1 sequence (P68871 2-147 limits assumed): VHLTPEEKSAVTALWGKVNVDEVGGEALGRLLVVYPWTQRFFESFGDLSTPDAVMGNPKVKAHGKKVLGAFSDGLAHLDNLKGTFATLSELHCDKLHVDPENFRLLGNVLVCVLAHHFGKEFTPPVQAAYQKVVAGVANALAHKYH
Method: Hb used in ex vivo experiments was purified from expired human blood concentrates as previously described (Elmer et al., 2009). Hb concentrations were determined by spectral deconvolution as described above and are given as molar concentrations of total heme (1 M Hb tetramer is equivalent to 4 M heme). Hx was used in equimolar concentration to the concentration of heme measured in the test sample. For all Hb used in these studies, the fraction of ferrous oxyHb (HbFe2+O2) was always greater than 98% as determined by spectrophotometry. Purified haptoglobin (phenotype 1-1) and hemopexin from human plasma was obtained from CSL Behring.
The oxidative potential of CSF samples was quantified by measuring the formation of malondialdehyde (MDA) as the final product of lipid peroxidation after incubation with a well-defined reconstituted lipoprotein (rLP, obtained from CSL Behring, Bern, Switzerland) (FIG. 7G). Using a 96-well plate, 25 μL CSF were mixed with 5 μL rLP (3 mg/mL) and incubated at 37° C. for 24 hours. Subsequently, the concentration of MDA was measured using a thiobarbituric acid reactive substance (TBARS) assay. In short 125 μL of 750 mM trichloroacetic acid in 1 M HCl was added to the samples, followed by short vortexing and subsequent addition of 100 μL 25 mM 2-thiobarbituric acid in 1 M NaOH.
After an incubation period at 80° for 60 min, the TBARS in the supernatant were quantified. For absolute quantification of MDA, the absorption at 600 nm was subtracted from the absorption at 532 nm and the concentration was calculated with the molar extinction 9 coefficient of […]. To achieve a more sensitive but relative quantification, the fluorescence emission was measured at 550 nm, using 510 nm as excitation wavelength.

[3] = formation of heme:Hx complexes in the CSF; settings: cell-free heme within the subarachnoid space
[4] = read-out: ability to bind heme with high affinity (Kd); cited from earlier work

Molecule	neurological function (open-field, rotarod, beamwalk testing) (C57BL/6J mice [1])	quantification of edema size and perfusion (C57BL/6J mice [2])	MDA formation (lipid peroxidation) (CSF-Hb)	other results
oxyHb: Hb purified from expired human blood concentrates; fraction of ferrous oxyHb greater than 98% [reference compound]	–	–	–	oxyHb concentration reaching maximum contraction (porcine basilar arteries; FIG. 4A): 10^−5 M
C=CC1=C(C)c2cc3[n-]c(cc4[n-]c(cc5nc(cc1n2)C(C)=C5C=C)c(C)c4CCC(=O)O)c(CCC(=O)O)c3C.[Fe+2] [heme]	impaired neurological function; also recorded: impaired neurobehavioral function	formation of a cerebral edema and a regionally decreased perfusion	–	radiological changes (T2, ADC map, ASL) (C57BL/6J mice [2]): perilesional edema, a diffusion restriction in the ADC map and a focal perfusion deficit
hemopexin: Purified hemopexin from human plasma obtained from CSL Behring; heme-scavenger protein	abrogates the heme-mediated impairment of neurological function	–	even stronger attenuation of MDA formation; also recorded: virtually blocked the formation of MDA; also recorded: surpassed the antioxidant function of haptoglobin	period of exposure sufficient to form detectable heme:Hx complexes in the CSF [3]: at least 2 minutes; Kd [4]: < 1 pM
Hp1-1: Purified haptoglobin (phenotype 1-1) from human plasma obtained from CSL Behring	–	–	effectively attenuated MDA formation	MDA formation (lipid peroxidation) (CSF-Hb; listed as haptoglobin): partial inhibition; contractile force of basilar arteries (anti-vasospastic effect) (porcine basilar arteries; Hb dose escalation with equimolar haptoglobin, repeated measures ANOVA p<0.001, FIG. 5C): significantly attenuated the contractile force
B1	no impairment in neurobehavioral activity	absent	–	radiological changes (T2, ADC map, ASL) (C57BL/6J mice [2]; listed as heme:Hpx): only minor radiological changes; also recorded: largely absent
